“And” between values parts separate entries of the source, which are not always exact repeats. Identical values can stand only once. Like-named read-outs stand apart in the source and are kept apart here.
Legend:
[1] = biological target: T1, gp130 extracellular domain (recombinant gp130-Fc-HA) (Homo sapiens, UniProt P40189); assay: Surface plasmon resonance direct binding to gp130-Fc-HA
T1 construct: purified gp130 (amino residue 18-615); made in house; host or cells: HEK293T (plasmid from Dr. John J. Krolewski)
T1 sequence (P40189 18-615): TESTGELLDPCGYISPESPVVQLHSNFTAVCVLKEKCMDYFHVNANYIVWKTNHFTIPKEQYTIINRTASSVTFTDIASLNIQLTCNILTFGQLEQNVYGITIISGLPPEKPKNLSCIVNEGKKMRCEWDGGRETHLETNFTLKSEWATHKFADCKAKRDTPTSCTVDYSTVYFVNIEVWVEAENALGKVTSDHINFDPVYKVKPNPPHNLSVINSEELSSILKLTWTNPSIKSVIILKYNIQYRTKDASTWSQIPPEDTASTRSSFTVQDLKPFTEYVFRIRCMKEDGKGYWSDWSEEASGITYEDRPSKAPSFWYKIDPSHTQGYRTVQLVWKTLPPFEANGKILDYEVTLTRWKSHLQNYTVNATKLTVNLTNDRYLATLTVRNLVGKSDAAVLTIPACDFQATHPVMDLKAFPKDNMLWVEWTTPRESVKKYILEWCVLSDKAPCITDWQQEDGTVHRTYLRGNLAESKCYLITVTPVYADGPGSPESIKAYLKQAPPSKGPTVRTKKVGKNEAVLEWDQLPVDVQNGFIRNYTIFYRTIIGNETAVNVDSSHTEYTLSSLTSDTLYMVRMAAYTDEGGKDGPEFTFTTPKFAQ
Protocol: HEK293T cells were grown in media containing DMEM+10% fetal bovine serum (FBS),100 U/ml penicillin and […] streptomycin (Invitrogen) in a humidified 37° C. incubator with 5% CO2. Plasmid DNA expressing gp130-Fc-HA was transfected in the form of calcium phosphate precipitate into HEK293T cells (ten T75 flasks containing 5.5×10^6 cells). The supernatant was harvested sixty hours post transfection and centrifuged to remove residual cells and adjusted to pH 8.0. The supernatant was passed through a 0.45 μm filter. The gp130-Fc-HA tagged protein was immunoprecipitated using anti-HA affinity matrix (Roche Applied Bioscience).A one milliliter column containing anti-HA affinity matrix was equilibrated with 20 mM Tris-HCl, 0.1M NaCl, 0.1 mM EDTA (pH 8.0). The supernatant was applied to the equilibrated column and the column was washed successively with 20 mM Tris-HCl, 1M NaCl (pH 8.0). Bound protein was eluted with HA peptide dissolved in equilibration buffer. The column was regenerated with 0.1 M glycine (pH 2.0). Fractions containing recombinant protein were pooled, dialyzed against HBS buffer [10 mM HEPES (pH 7.4), 0.15 M NaCl, 3 mM EDTA, 0.005% P20] and concentrated by Centricon 30 (Amicon) centrifugation. Protein concentration was determined using Bradford protein assay reagent (Pierce), with bovine serum albumin (BSA, Fisher Scientific) as a standard. The purified recombinant gp130 protein was analyzed using SDS-PAGE and immunoblotting.
Surface plasmon resonance (SPR) analysis was performed using BIAcore T100. Recombinant gp130-Fc-HA was cross-linked to the flow cell on a carboxymethylated dextran matrix of a CM5 sensor chip (BIAcore) using standard amino group coupling methods according to the manufacturer's instructions. Sodium acetate (10 mM, pH 3.5) gave the best immobilization of the protein on the chip surface and unreactive groups on the chip were blocked by ethanolamine according to the manufacturer's instructions. Approximately 5000 resonance units (RU) of gp130-Fc-HA were cross-linked to the flow cell. HBS+1% DMSO were used in all buffers (running and sample) to avoid background response due to differences in buffer refractive index. For the equilibrium analysis, various concentrations of MDL-A, 1, and 2 were injected for a period of 2 min at a flow rate of 30 μl/min, in series, into flow cells containing covalently bound gp130-fc-HA and reference flow cell. Bound ligand (MDL-A, 1, and 2) in each assay was removed by passing 10 mM glycine (pH 2.2) over the chip surface. Biacore T100 Evaluation 2.0 was used for all interaction analyses. The steady-state equilibrium response (RUeq) was determined from the reference-subtracted sensogram. The kinetics parameter was calculated according to a 1:1 Langmuir binding model (A+B ? AB) by direct fitting of ligand binding sensor grams at multiple concentrations. The dissociation equilibrium constant is defined as dissociation constant (KD)=dissociation rate constant (kd)/association rate constant (ka). KD was determined by scattered analysis of equilibrium-state data obtained at different concentrations of analogues.
To examine the direct binding and calculation of equilibrium dissociation constant (KD) of MDL-A analogues with gp130 extracellular domain, surface plasmon resonance analysis was done. Protein was covalently cross linked to the dextran matrix of the biosensor chip CM5. Successively, various concentrations of MDL-A and MDL-A analogues were injected into the flow cells containing bound protein and no protein (reference). Interactions were monitored in real time and KD values were calculated by reference-substrated sensogram.
To examine the direct binding and calculate the equilibrium dissociation constant (KD) of MDL-A analogues with gp130 extracellular domain, surface plasmon resonance analysis was performed. Surface plasmon resonance (SPR) analysis was performed using a BIAcore T100. […]

[2] = system: IL-6-independent MH60 cells; conditions: Omura and coworkers; cited from earlier work

Kd ([1]; gp130 extracellular domain, Biacore evaluation software 2.0, read-out: KD): 288 µM | Kd ([1]; values in running text and figure legend, read-out: dissociation constant (KD)): ~300 µM and ~290 µM
SMILES: CCCCC1=C(C)C(=O)[C@@](C)(CN2c3ccccc3[C@]3(O)CCO[C@H]23)C1=O [MDL-A, (+)-Madindoline A, reference compound]
growth of IL-6-independent MH60 cells [2]: unaffected

Reference: patent publication US20140315956A1, “SMALL MOLECULE INHIBITORS OF IL-6 AND USES THEREOF” (NATIONWIDE CHILDREN'S HOSPITAL, priority 2011, published 2014)
